# Assay results published in the supplement of paper PMC10307832.
# Columns and labels:
# Assay in all cases: relative viability (nuclei count vs DMSO), 5 days (fraction); higher = more cells survive
# NCI-H2347 = system: NCI-H2347
# Summary of the method: (§1)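 Cells from lung cancer lines were seeded into 1536-well plates and, one day later, dosed by pin tool. Treatments were either a single drug or a fixed dose of an anchor drug with five library-drug doses (not always all listed) in √10 steps. After 5 days, nuclei were stained in a one-step fixation (final 0.05% Triton X-100, 1% formaldehyde, 1 ug/ml Hoechst) and counted on 4× images, and relative viability is the treated-to-vehicle nuclei ratio, as the median of duplicate plates.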
# EMC-BAC-2 = system: EMC-BAC-2
# Summary of the method: as §1
# NCI-H2087 = system: NCI-H2087
# Summary of the method: as §1
# NCI-H650 = system: NCI-H650
# Summary of the method: as §1
# HARA = system: HARA
# Summary of the method: as §1
# NCI-H23 = system: NCI-H23
# Summary of the method: as §1
# HCC-44 = system: HCC-44
# Summary of the method: as §1
# NCI-H596 = system: NCI-H596
# Summary of the method: as §1
# NCI-H2126 = system: NCI-H2126
# Summary of the method: as §1
# LOU-NH91 = system: LOU-NH91
# Summary of the method: as §1
# NCI-H1993 = system: NCI-H1993
# Summary of the method: as §1
# LCLC-103H = system: LCLC-103H
# Summary of the method: as §1
# NCI-H647 = system: NCI-H647
# Summary of the method: as §1
# NCI-H3122 = system: NCI-H3122
# Summary of the method: as §1
# NCI-H441 = system: NCI-H441
# Summary of the method: as §1
# NCI-H838 = system: NCI-H838
# Summary of the method: as §1
# BEN = system: BEN
# Summary of the method: as §1
# NCI-H727 = system: NCI-H727
# Summary of the method: as §1
# NCI-H2023 = system: NCI-H2023
# Summary of the method: as §1
# 201T = system: 201T
# Summary of the method: as §1
smiles,measurement,setting,value
O=c1cc(-c2cccc3c2Sc2ccccc2S3)oc(N2CCOCC2)c1 + CC(C)C[C@H](NC(=O)[C@H](Cc1ccccc1)NC(=O)c1cnccn1)B(O)O [Bortezomib] (partner 0.002 µM),relative viability,NCI-H2347; first compound 0.08 µM,0.947
same,relative viability,NCI-H2347; first compound 0.253 µM,1.17
same,relative viability,NCI-H2347; first compound 0.8 µM,1.09
same,relative viability,NCI-H2347; first compound 2.53 µM,0.902
same,relative viability,NCI-H2347; first compound 8 µM,1.73
same,relative viability,EMC-BAC-2; first compound 0.08 µM,1.03
same,relative viability,EMC-BAC-2; first compound 0.253 µM,1.18
same,relative viability,EMC-BAC-2; first compound 0.8 µM,1.1
same,relative viability,EMC-BAC-2; first compound 2.53 µM,1.03
same,relative viability,EMC-BAC-2; first compound 8 µM,1.1
same,relative viability,NCI-H2087; first compound 0.08 µM,1.06
same,relative viability,NCI-H2087; first compound 0.253 µM,1.02
same,relative viability,NCI-H2087; first compound 0.8 µM,1.1
same,relative viability,NCI-H2087; first compound 2.53 µM,0.792
same,relative viability,NCI-H2087; first compound 8 µM,0.888
same,relative viability,NCI-H650; first compound 0.08 µM,0.701
same,relative viability,NCI-H650; first compound 0.253 µM,0.74
same,relative viability,NCI-H650; first compound 0.8 µM,0.869
same,relative viability,NCI-H650; first compound 2.53 µM,0.599
same,relative viability,NCI-H650; first compound 8 µM,0.803
same,relative viability,HARA; first compound 0.08 µM,1.09
same,relative viability,HARA; first compound 0.253 µM,1.37
same,relative viability,HARA; first compound 0.8 µM,0.926
same,relative viability,HARA; first compound 2.53 µM,0.921
same,relative viability,HARA; first compound 8 µM,1.24
same,relative viability,NCI-H23; first compound 0.08 µM,0.948
same,relative viability,NCI-H23; first compound 0.253 µM,1.16
same,relative viability,NCI-H23; first compound 0.8 µM,1.25
same,relative viability,NCI-H23; first compound 2.53 µM,0.914
same,relative viability,NCI-H23; first compound 8 µM,1.09
same,relative viability,HCC-44; first compound 0.08 µM,0.907
same,relative viability,HCC-44; first compound 0.253 µM,1.07
same,relative viability,HCC-44; first compound 0.8 µM,0.837
same,relative viability,HCC-44; first compound 2.53 µM,0.816
same,relative viability,HCC-44; first compound 8 µM,1.03
same,relative viability,NCI-H596; first compound 0.08 µM,0.985
same,relative viability,NCI-H596; first compound 0.253 µM,1.18
same,relative viability,NCI-H596; first compound 0.8 µM,0.959
same,relative viability,NCI-H596; first compound 2.53 µM,0.745
same,relative viability,NCI-H596; first compound 8 µM,1.14
same,relative viability,NCI-H2126; first compound 0.08 µM,1.13
same,relative viability,NCI-H2126; first compound 0.253 µM,1.13
same,relative viability,NCI-H2126; first compound 0.8 µM,1.12
same,relative viability,NCI-H2126; first compound 2.53 µM,1.1
same,relative viability,NCI-H2126; first compound 8 µM,1.2
same,relative viability,LOU-NH91; first compound 0.08 µM,0.481
same,relative viability,LOU-NH91; first compound 0.253 µM,0.514
same,relative viability,LOU-NH91; first compound 0.8 µM,0.546
same,relative viability,LOU-NH91; first compound 2.53 µM,0.489
same,relative viability,LOU-NH91; first compound 8 µM,0.502
same,relative viability,NCI-H1993; first compound 0.08 µM,1.12
same,relative viability,NCI-H1993; first compound 0.253 µM,1.21
same,relative viability,NCI-H1993; first compound 0.8 µM,0.972
same,relative viability,NCI-H1993; first compound 2.53 µM,1.04
same,relative viability,NCI-H1993; first compound 8 µM,1.2
same,relative viability,LCLC-103H; first compound 0.08 µM,1.16
same,relative viability,LCLC-103H; first compound 0.253 µM,1.18
same,relative viability,LCLC-103H; first compound 0.8 µM,1.08
same,relative viability,LCLC-103H; first compound 2.53 µM,1.14
same,relative viability,LCLC-103H; first compound 8 µM,1.37
same,relative viability,NCI-H647; first compound 0.08 µM,0.978
same,relative viability,NCI-H647; first compound 0.253 µM,1.3
same,relative viability,NCI-H647; first compound 0.8 µM,1.04
same,relative viability,NCI-H647; first compound 2.53 µM,0.85
same,relative viability,NCI-H647; first compound 8 µM,1.57
same,relative viability,NCI-H3122; first compound 0.08 µM,1.05
same,relative viability,NCI-H3122; first compound 0.253 µM,1.15
same,relative viability,NCI-H3122; first compound 0.8 µM,1.08
same,relative viability,NCI-H3122; first compound 2.53 µM,1
same,relative viability,NCI-H3122; first compound 8 µM,1.12
same,relative viability,NCI-H441; first compound 0.08 µM,0.488
same,relative viability,NCI-H441; first compound 0.253 µM,1.25
same,relative viability,NCI-H441; first compound 0.8 µM,0.98
same,relative viability,NCI-H441; first compound 2.53 µM,0.45
same,relative viability,NCI-H441; first compound 8 µM,0.594
same,relative viability,NCI-H838; first compound 0.08 µM,0.703
same,relative viability,NCI-H838; first compound 0.253 µM,1.05
same,relative viability,NCI-H838; first compound 0.8 µM,0.728
same,relative viability,NCI-H838; first compound 2.53 µM,0.693
same,relative viability,NCI-H838; first compound 8 µM,0.588
same,relative viability,BEN; first compound 0.08 µM,0.802
same,relative viability,BEN; first compound 0.253 µM,0.858
same,relative viability,BEN; first compound 0.8 µM,0.991
same,relative viability,BEN; first compound 2.53 µM,0.889
same,relative viability,BEN; first compound 8 µM,1.23
same,relative viability,NCI-H727; first compound 0.253 µM,1.1
same,relative viability,NCI-H727; first compound 2.53 µM,0.66
same,relative viability,NCI-H727; first compound 8 µM,0.972
same,relative viability,NCI-H2023; first compound 0.08 µM,1
same,relative viability,NCI-H2023; first compound 0.253 µM,1.1
same,relative viability,NCI-H2023; first compound 0.8 µM,0.988
same,relative viability,NCI-H2023; first compound 2.53 µM,0.528
same,relative viability,NCI-H2023; first compound 8 µM,0.937
same,relative viability,201T; first compound 0.08 µM,1.07
same,relative viability,201T; first compound 0.253 µM,1.15
same,relative viability,201T; first compound 0.8 µM,1.15
same,relative viability,201T; first compound 2.53 µM,1.02
same,relative viability,201T; first compound 8 µM,1.08
